Assay results from ChEMBL document CHEMBL5104137, “The overview of Mitogen-activated extracellular signal-regulated kinase (MEK)-based dual inhibitor in the treatment of cancers” (Bioorg Med Chem, 2022).

How the values were obtained:
MOLM-13 = experiment: Antiproliferative activity against human MOLM13 cells harboring FLT3-ITD mutant assessed as cell growth inhibition by Trypan blue staining based assay; assay type: functional
MV4-11 = experiment: Antiproliferative activity against human MV4-11 cells harboring FLT3-ITD mutant assessed as cell growth inhibition by trypan blue staining based assay; assay type: functional
BaF3 [1] = experiment: Antiproliferative activity against […] cells harboring D835Y mutant assessed as cell growth inhibition by trypan blue staining based assay; assay type: functional; conditions: Mus musculus
BaF3 [2] = experiment: Antiproliferative activity against […] cells harboring D835G mutant assessed as cell growth inhibition by trypan blue staining based assay; assay type: functional; conditions: Mus musculus
MIA PaCa-2 = experiment: Antiproliferative activity against human MIA PaCa-2 cells harboring […] mutant assessed as cell growth inhibition measured after 72 hrs by WST-8 assay; assay type: functional, cell-based; conditions: MIA PaCa-2, 72 h
SW480 = experiment: Antiproliferative activity against human SW480 cells harboring […] mutant assessed as cell growth inhibition measured after 72 hrs by WST-8 assay; assay type: functional, cell-based; conditions: SW480, 72 h
[3] = Antiproliferative activity against human CT-TC cells harboring HRAS Q61K mutant assessed as cell growth inhibition measured after 72 hrs by WST-8 assay; assay type: functional, cell-based
HCT-116 = experiment: Antiproliferative activity against human HCT-116 cells harboring […] mutant assessed as cell growth inhibition measured after 72 hrs by WST-8 assay; assay type: functional, cell-based; conditions: HCT-116, 72 h
SK-MEL-28 = experiment: Antiproliferative activity against human SK-MEL-28 cells harboring BRAF V600E mutant assessed as cell growth inhibition measured after 72 hrs by WST-8 assay; assay type: functional, cell-based; conditions: SK-MEL-28, 72 h
SK-MEL-2 = experiment: Antiproliferative activity against human SK-MEL-2 cells harboring NRAS Q61R mutant assessed as cell growth inhibition measured after 72 hrs by WST-8 assay; assay type: functional, cell-based; conditions: SK-MEL-2, 72 h
[4] = Inhibition of human MEK using 5-Fl-SGQLIDSMANSFV-NH2 peptide as substrate by FRET assay
[5] = molecular target: Serine/threonine-protein kinase B-raf (Homo sapiens, UniProt P15056, V600E); experiment: Inhibition of human BRAF V600E mutant using 5-Fl-SGQLIDSMANSFV-NH2 peptide as substrate by FRET assay
[6] = molecular target: Serine/threonine-protein kinase B-raf (Homo sapiens, UniProt P15056); experiment: Inhibition of wild type human BRAF using 5-Fl-SGQLIDSMANSFV-NH2 peptide as substrate by FRET assay
[7] = Cmax in BomTac:NMRI-Foxn1 mouse xenografted with human Calu6 cells harboring KRAS Q61K mutant at 70 mg/kg per week, po via gavage by electrochemo-luminescence analysis; assay type: ADME, organism-based, Calu-6; set-up: dose 70 mg/kg, route po; conditions: in vivo
[8] = Cmax in BomTac:NMRI-Foxn1 mouse xenografted with human Calu6 cells harboring KRAS Q61K mutant at 10 mg/kg per day, po via gavage measured after 24 hrs by electrochemo-luminescence analysis; assay type: ADME, organism-based, Calu-6; set-up: time 24 hrs, dose 10 mg/kg, route po; conditions: in vivo
[9] = Cmax in BomTac:NMRI-Foxn1 mouse xenografted with human Calu6 cells harboring KRAS Q61K mutant at 70 mg/kg per week, po via gavage measured after 24 hrs by electrochemo-luminescence analysis; assay type: ADME, organism-based, Calu-6; set-up: dose 70 mg/kg, time 24 hrs, route po; conditions: in vivo
Aurora kinase B-B = Aurora kinase B-B (Xenopus laevis, UniProt Q6GPL3); experiment: Inhibition of Xenopus laevis Aurora Kinase B
[10] = Inhibition of Xenopus laevis Aurora Kinase C
[11] = Cmax in BomTac:NMRI-Foxn1 mouse xenografted with human Calu6 cells harboring KRAS Q61K mutant at 10 mg/kg per day, po via gavage by electrochemo-luminescence analysis; assay type: ADME, organism-based, Calu-6; set-up: dose 10 mg/kg, route po; conditions: in vivo

Chain of Serine/threonine-protein kinase B-raf (Homo sapiens, UniProt P15056, V600E) (P15056 2-766 V600E limits assumed): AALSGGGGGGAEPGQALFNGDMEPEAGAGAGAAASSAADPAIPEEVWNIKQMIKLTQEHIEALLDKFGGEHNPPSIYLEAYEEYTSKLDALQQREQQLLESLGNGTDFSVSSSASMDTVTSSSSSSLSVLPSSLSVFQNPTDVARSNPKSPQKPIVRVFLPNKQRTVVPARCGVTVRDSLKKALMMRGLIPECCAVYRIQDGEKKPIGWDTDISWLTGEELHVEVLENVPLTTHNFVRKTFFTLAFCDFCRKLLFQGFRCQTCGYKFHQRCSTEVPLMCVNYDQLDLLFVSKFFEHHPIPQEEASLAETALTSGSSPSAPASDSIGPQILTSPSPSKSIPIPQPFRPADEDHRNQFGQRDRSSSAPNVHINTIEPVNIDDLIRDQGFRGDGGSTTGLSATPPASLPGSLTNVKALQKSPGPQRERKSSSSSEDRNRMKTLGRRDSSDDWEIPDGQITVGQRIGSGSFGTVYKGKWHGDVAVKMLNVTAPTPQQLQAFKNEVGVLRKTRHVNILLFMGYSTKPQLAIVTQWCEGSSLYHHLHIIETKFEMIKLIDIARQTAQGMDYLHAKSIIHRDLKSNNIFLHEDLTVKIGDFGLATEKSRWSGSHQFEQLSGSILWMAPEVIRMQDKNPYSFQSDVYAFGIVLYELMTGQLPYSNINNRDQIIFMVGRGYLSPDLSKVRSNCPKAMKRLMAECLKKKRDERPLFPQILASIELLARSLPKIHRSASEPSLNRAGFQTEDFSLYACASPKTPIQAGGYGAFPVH
Chain of Serine/threonine-protein kinase B-raf (Homo sapiens, UniProt P15056) (P15056 whole entry): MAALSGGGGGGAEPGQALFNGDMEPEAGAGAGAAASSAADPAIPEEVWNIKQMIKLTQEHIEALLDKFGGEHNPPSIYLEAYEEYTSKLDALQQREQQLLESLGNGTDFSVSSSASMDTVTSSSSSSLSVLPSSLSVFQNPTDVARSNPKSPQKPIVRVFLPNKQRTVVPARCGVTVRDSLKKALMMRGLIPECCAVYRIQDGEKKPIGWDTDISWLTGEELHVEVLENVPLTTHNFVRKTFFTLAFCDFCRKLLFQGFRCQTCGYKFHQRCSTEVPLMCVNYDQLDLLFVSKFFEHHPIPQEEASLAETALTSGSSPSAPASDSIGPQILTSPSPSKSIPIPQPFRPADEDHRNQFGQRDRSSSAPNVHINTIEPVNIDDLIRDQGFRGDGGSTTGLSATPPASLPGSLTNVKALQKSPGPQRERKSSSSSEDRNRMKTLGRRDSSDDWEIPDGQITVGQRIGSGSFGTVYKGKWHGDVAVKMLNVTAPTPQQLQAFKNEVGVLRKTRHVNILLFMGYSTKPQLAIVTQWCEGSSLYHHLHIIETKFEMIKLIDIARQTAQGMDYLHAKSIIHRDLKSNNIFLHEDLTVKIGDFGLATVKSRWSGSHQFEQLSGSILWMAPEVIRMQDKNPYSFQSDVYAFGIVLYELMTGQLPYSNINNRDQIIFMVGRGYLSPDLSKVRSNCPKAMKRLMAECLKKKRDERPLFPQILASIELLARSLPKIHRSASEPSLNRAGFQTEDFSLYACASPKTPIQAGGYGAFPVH
Chain of Aurora kinase B-B (Q6GPL3 whole entry): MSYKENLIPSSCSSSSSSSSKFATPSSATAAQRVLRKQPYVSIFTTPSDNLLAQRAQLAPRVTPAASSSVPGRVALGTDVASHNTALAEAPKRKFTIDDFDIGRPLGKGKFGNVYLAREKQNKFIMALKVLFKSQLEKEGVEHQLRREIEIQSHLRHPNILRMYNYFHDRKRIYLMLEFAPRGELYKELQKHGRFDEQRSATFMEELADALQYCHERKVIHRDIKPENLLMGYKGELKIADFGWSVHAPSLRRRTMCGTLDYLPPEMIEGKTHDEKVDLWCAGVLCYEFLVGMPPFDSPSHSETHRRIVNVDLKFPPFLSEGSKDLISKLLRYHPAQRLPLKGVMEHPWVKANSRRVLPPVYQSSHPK

SMILES: CCNc1cc(O)c2c(c1)/C=C/C[C@H](O)[C@H](O)C(=O)/C=C\[C@@H](C)[C@H](C)OC2=O [E-6201]
- IC50 (MOLM-13): 5 nM
- IC50 (MV4-11): 2 nM
- IC50 (BaF3 [1]): 26 nM
- IC50 (BaF3 [2]): 4.6 nM

SMILES: CNS(=O)(=O)Nc1nccc(Cc2c(C)c3ccc(Oc4ncccn4)cc3oc2=O)c1F [AVUTOMETINIB]
- IC50 (MIA PaCa-2): 40 nM
- IC50 (SW480): 46 nM
- IC50 [3]: 360 nM
- IC50 (HCT-116): 277 nM
- IC50 (SK-MEL-28): 65 nM
- IC50 (SK-MEL-2): 28 nM
- IC50 [4]: 160 nM
- IC50 [5]: 8.2 nM
- IC50 [6]: 19 nM

SMILES: CCNC(=O)C#Cc1ccc2c(c1)NC(=O)/C2=C(\Nc1ccc(CN(C)C)cc1)c1ccccc1
- Cmax [7]: 2700 nM
- Cmax [8]: 13 nM
- Cmax [9]: 460 nM
- IC50 (Aurora kinase B-B): 3 nM
- IC50 [10]: 15 nM
- Cmax [11]: 380 nM
